# Reference: patent US11534440B2, “Combination therapy with Axl inhibitor and immune checkpoint modulator or oncolytic virus” (BerGenBio ASA, priority 2015, dated 2022)
# “Also recorded” adds a separate entry of the source.
# What was measured:
# Lewis Lung tumors = assay: Subcutaneous Lewis Lung syngeneic tumor model: survival, tumor burden, metastasis; assay type: in vivo; conditions: Lewis Lung tumor bearing C57Bl/6 mice; BGB324 combined with PD-1/PD-L1 compared to PD-1/PD-L1 alone
# From the text: • Species/Strain: Balb/c ABomTac • Source: Taconic Farms • Sex: Female • Weight: 20-30 grams on the day of implantation • Age: at least 6 weeks old on the day of randomization • Animal Identification: Cage number and ear notching Experimental Animals for Syngeneic Lewis Lung Model: • Species/Strain: C57BL/6JOlaHsd • Source: Harlan Laboratories • Sex: Female • Weight: 20-30 grams on the day of implantation • Age: at least 6 weeks old on the day of randomization • Animal Identification: Cage number and ear notching Cells and Materials: • RPMI-1640 (Sigma, Cat. # R8758) supplemented with 10% fetal bovine serum (FBS), L-glutamine (4 mM), streptomycin (5 μg/ml) and penicillin (5 U/ml). • BD Matrigel™ Basement Membrane Matrix Growth Factor Reduced, BD Bioscience, Cat. #354230, Lot #2229975. • 0.25% Trypsin-EDTA, Sigma, Cat. # SLBD8049. Drugs Vehicle: 0.5% HPMC/0.1% Tween 80 vehicle for BGB324. Sterile PBS for immune checkpoint inhibitors. IgG: InVivoMAb Polyclonal Armenian Hamster IgG, BE0091, BioXCell, Isotype control for IP injections. BGB324: Manufacturer: Almac Group, N Ireland, batch Q1080. BGB324 powder was stored at room temperature. […] BGB324 was diluted in vehicle to 5 mg/ml dosing solution and administered to the mice immediately. BGB324 solution was freshly prepared every day. […]
# [1] = system: Cytotoxic T cells (CTLs), Natural Killer cells, macrophages, neutrophils, mMDSCs; assay: Immune cell sub-populations in tumors and spleens, 4T1 model; assay type: in vivo, Balb/c mice
# From the text: • Species/Strain: Balb/c ABomTac • Source: Taconic Farms • Sex: Female • Weight: 20-30 grams on the day of implantation • Age: at least 6 weeks old on the day of randomization • Animal Identification: Cage number and ear notching Experimental Animals for Syngeneic Lewis Lung Model: • Species/Strain: C57BL/6JOlaHsd • Source: Harlan Laboratories • Sex: Female • Weight: 20-30 grams on the day of implantation • Age: at least 6 weeks old on the day of randomization • Animal Identification: Cage number and ear notching Cells and Materials: • RPMI-1640 (Sigma, Cat. # R8758) supplemented with 10% fetal bovine serum (FBS), L-glutamine (4 mM), streptomycin (5 μg/ml) and penicillin (5 U/ml). • BD Matrigel™ Basement Membrane Matrix Growth Factor Reduced, BD Bioscience, Cat. #354230, Lot #2229975. • 0.25% Trypsin-EDTA, Sigma, Cat. # SLBD8049. Drugs Vehicle: 0.5% HPMC/0.1% Tween 80 vehicle for BGB324. Sterile PBS for immune checkpoint inhibitors. IgG: InVivoMAb Polyclonal Armenian Hamster IgG, BE0091, BioXCell, Isotype control for IP injections. BGB324: Manufacturer: Almac Group, N Ireland, batch Q1080. BGB324 powder was stored at room temperature. The BGB324 dosage given was well below the MTD in mice (023-TR-324). […] BGB324 was diluted in vehicle to 5 mg/ml dosing solution and administered to the mice immediately. BGB324 solution was freshly prepared every day. Anti-mCTLA-4 (CD152) monoclonal antibody (CTAA-4): Syrian Hamster IgG, clone 9H10 (BioXCell, Cat. # BE0131). Anti-mPD-1 monoclonal antibody (PD-1): rat IgG2a, clone RMP1-14 (BioXCell, Cat. # BE0146). Anti-mPD-L1 monoclonal antibody (PD-L1): rat IgG2b, clone 10F.9G2 (BioXCell, Cat # BE0101). Methods Cell Culture 4T1 mammary adenocarcinoma cells and Non Small Cell Lung Cancer (NSCLC) Lewis Lung (LL2) were propagated at sub-confluence and split on a regular basis every 3rd day. After trypsinization, the cells were washed once in RPMI/FBS (7 min at 1200 rpm) and re-suspended at 4×10^6 cells/ml (4T1 cells) or 2.5×10^6 per ml (LL2 cells) in a mixture of serum-free RPMI medium and Matrigel (1:1). Subcutaneous Tumor Inoculation Each animal was weighed before cell implantation. Injection of cells was performed after anesthetizing of mice by inhalation of sevoflurane. Anesthesia was induced with 8% sevoflurane and maintained at 4%. During injection, the mouse was placed on a heating pad. For implantation of 4T1 tumors: under a suitable depth of unconsciousness, each mouse was shaved and skin surrounding the region was washed with Chlorhexidine (1 mg/ml) with use of sterile gauze. […] Assignment of Experimental Groups Before commencement of treatment, the animals were weighted and the tumor volume was measured twice a week. […]
# [2] = system: Cytotoxic T cells (CTLs), Natural Killer cells (NK), mMDSCs; assay: Immune cell sub-populations in tumors, Lewis Lung model; assay type: in vivo, C57Bl/6 mice; conditions: BGB324 combined with PD-1/PD-L1 compared to PD-1/PD-L1 alone, day 21
# From the text: • Species/Strain: Balb/c ABomTac • Source: Taconic Farms • Sex: Female • Weight: 20-30 grams on the day of implantation • Age: at least 6 weeks old on the day of randomization • Animal Identification: Cage number and ear notching Experimental Animals for Syngeneic Lewis Lung Model: • Species/Strain: C57BL/6JOlaHsd • Source: Harlan Laboratories • Sex: Female • Weight: 20-30 grams on the day of implantation • Age: at least 6 weeks old on the day of randomization • Animal Identification: Cage number and ear notching Cells and Materials: • RPMI-1640 (Sigma, Cat. # R8758) supplemented with 10% fetal bovine serum (FBS), L-glutamine (4 mM), streptomycin (5 μg/ml) and penicillin (5 U/ml). • BD Matrigel™ Basement Membrane Matrix Growth Factor Reduced, BD Bioscience, Cat. #354230, Lot #2229975. • 0.25% Trypsin-EDTA, Sigma, Cat. # SLBD8049. Drugs Vehicle: 0.5% HPMC/0.1% Tween 80 vehicle for BGB324. Sterile PBS for immune checkpoint inhibitors. IgG: InVivoMAb Polyclonal Armenian Hamster IgG, BE0091, BioXCell, Isotype control for IP injections. BGB324: Manufacturer: Almac Group, N Ireland, batch Q1080. BGB324 powder was stored at room temperature. […] BGB324 was diluted in vehicle to 5 mg/ml dosing solution and administered to the mice immediately. BGB324 solution was freshly prepared every day. Anti-mCTLA-4 (CD152) monoclonal antibody (CTAA-4): Syrian Hamster IgG, clone 9H10 (BioXCell, Cat. # BE0131). […] Anti-mPD-L1 monoclonal antibody (PD-L1): rat IgG2b, clone 10F.9G2 (BioXCell, Cat # BE0101). Methods Cell Culture 4T1 mammary adenocarcinoma cells and Non Small Cell Lung Cancer (NSCLC) Lewis Lung (LL2) were propagated at sub-confluence and split on a regular basis every 3rd day. After trypsinization, the cells were washed once in RPMI/FBS (7 min at 1200 rpm) and re-suspended at 4×10^6 cells/ml (4T1 cells) or 2.5×10^6 per ml (LL2 cells) in a mixture of serum-free RPMI medium and Matrigel (1:1). Subcutaneous Tumor Inoculation Each animal was weighed before cell implantation. Injection of cells was performed after anesthetizing of mice by inhalation of sevoflurane. […]
# [3] = 4T1 model, BGB324 combined with CTLA-4/PD-1 compared to CTLA-4/PD-1 alone, day 11
smiles,measurement,setting,value
"Nc1nc(Nc2ccc3c(c2)CC[C@@H](N2CCCC2)CC3)nn1-c1cc2c(nn1)-c1ccccc1CCC2 [BGB324, 1-(6,7-dihydro-5H-benzo[6,7]cyclohepta[1,2-c]pyridazin-3-yl)-N^3-((7-(S)-pyrrolidin-1-yl)-6,7,8,9-tetrahydro-5H-benzo[7]annulene-2-yl)-1H-1,2,4-triazole-3,5-diamine]",survival (tumor reaching 500 mm^3 as endpoint),Lewis Lung tumors,significantly prolonged survival
same,tumor burden,Lewis Lung tumors,reduced tumor burden
same,number of CTLs in the spleen,"[1]; 4T1 model, 43 days after treatment initiation, compared to immune check point inhibitors alone",further enhanced the number of CTLs
same,"presence of Natural Killer cells, macrophages and neutrophils in spleens",[1]; [3],"enhanced presence of NK cells, macrophages and PMN neuotrophiles"
same,presence of pro-tumorigenic mMDSCs in spleens,[1]; [3],reduction in the presence of pro-tumorigenic mMDSC
same,tumor infiltration of Cytotoxic T cells (CTLs),"[1]; 4T1 tumors, BGB324 combined with CTLA-4/PD-1 compared to CTLA-4/PD-1 alone",enhanced CTL tumor infiltration; also recorded: further enhanced tumour infiltration of CTLs
same,presence of pro-tumorigenic mMDSCs,[2]; Lewis Lung model,reduction in the presence of pro-tumorigenic mMDSC
same,tumor infiltration / presence of Natural Killer cells (NK),[2]; Lewis Lung tumors,enhanced presence of NK cells
same,tumor infiltration of Cytotoxic T cells (CTLs),[2]; Lewis Lung tumors,enhanced CTL tumor infiltration
